Test results as given in PMC7922534, “Searching for Peptide Inhibitors of T Regulatory Cell Activity by Targeting Specific Domains of FOXP3 Transcription Factor” (Biomedicines, 2021).

Experiments:
[1] = test system: murine CD4+CD25+ Treg cells; experiment: In vitro Treg inhibition: anti-CD3 stimulated effector T cells co-cultured with Treg cells, tritiated thymidine incorporation; type: cell-based, mouse; settings: peptide 50 μM; for Treg inhibitory capacity in vitro (proliferation of effector T cells with anti-CD3 in presence of Treg): BALB/c Teff 10^5 + Treg 10^4 cells/well, 3 days, tritiated thymidine; for toxicity in Teff&Treg co-cultures: cpm below cpm of Teff&Treg co-cultures without peptide
Protocol: (§1) In vitro assays were carried out using (i) the Karpas 299 human cell line (ACC-31, DSMZ, Germany), derived from a human lymphoma with a regulatory T cell profile or (ii) using natural Treg cells isolated from the murine splenocytes. To evaluate the effect of peptides on the immunosuppressive activity of the Karpas 299 cell line, a “mixed lymphocyte reaction” (MLR) assay was carried out using peripheral blood mononuclear cells (PBMCs) from two donors (previously tested to induce a strong MLR reaction in co-culture) (1 × 10^5 cells/well per each PBMC) in the presence or absence of Karpas 299 (1 × 10^4 cells/well). Peptides were added at 50 μM to the co-cultures to evaluate their capacity to restore the production of interferon-gamma (IFN-γ) inhibited by Karpas 299. After 48 hours, the supernatants were extracted to measure interferon-gamma (IFN-γ) by means of a commercial ELISA (Pharmingen, San Diego, CA, US). In vitro assays for Treg inhibition using natural Treg cells: Murine CD4+CD25+ (Treg cells), and CD4+CD25-T-cells (effector T cells) were purified from murine spleen cells by using a murine regulatory T-cell isolation kit (Miltenyi Biotec, Bergisch Gladbach, Germany) according to the manufacturer’s instructions. The purity of the resulting T-cell populations was confirmed to be >95% by flow cytometry. Inhibition of murine T regulatory cell function was measured in an in vitro assay of T-cell stimulation. Effector T cells (10^5 cells/well) from BALB/c mice were stimulated in vitro with 2, 5 μg/mL of anti-mouse CD3 antibody (Pharmingen) in the presence/absence of purified Treg cells (10^4 cells/well) and the indicated peptides (50 μM). T-cell proliferation was measured 3 days later as previously described. Percentage of Treg inhibition was calculated using the following formula: % inhibition= 100*((cpm of Teff&Treg co-cultures in the presence of peptide - cpm of Teff&Treg co-cultures)/(cpm of Teff - cpm of Teff&Treg co-cultures)). The Institutional Review Board on Human Subjects (Clínica Universidad de Navarra, Ref 2016.118) approved this research, and informed consent was obtained from all blood donors.

4T1-FOXP3 cells = experiment: Proliferation of 4T1-Ctrl and 4T1-FOXP3 tumor cells in vitro; type: cell-based; settings: peptide 50 μM, Figure 2C
Protocol: The cell line 4T1-FOXP3 expressing FOXP3 was generated. 4T1-WT cells were transfected with empty pcDNA3.1 or with pcDNA3.1 FOXP3, expressing FOXP3 gene and neomycin (which confers resistance to G418 antibiotic) to generate 4T1-Ctrl and 4T1-Foxp3 cells. Briefly, 8 × 10^5 cells were seeded in 6-well culture plates one day prior to transfection. The cultures were 60–80% confluent at the time of transfection. Cells were transfected with 5 ug plasmid DNA per well for 6 hours using lipofectimine 2000 transfection reagent (Invitrogen). After 48 hours, 0.3 mg/mL of G418 drug (GIBCO) was added to the culture during 14 days for the selection of resistant cells. These cells were used in vitro to measure the effect of peptides to overcome the proliferative capacity inhibited by FOXP3. In addition, 4T1-FOXP3 and 4T1-Ctrl cells were injected in vivo (10^5 cells/ mouse) subcutaneously or intravenously to compare their capacity to induce tumors and lung metastases. Murine Lewis lung carcinoma expressing OVA, LLCOVA were kindly provided by Dr. Daniel Ajona (CIMA). The murine colon adenocarcinoma cell line MC38, LLOOVA, 4T1-Ctrl, and 4T1-FOXP3 were cultured in mouse medium (RPMI 1640, 10% fetal calf serum (Sigma), 100 U/mL penicillin, 100 μg/mL streptomycin (Invitrogene), […] Gentamicin (Gibco), 2 mM L-Glutamine (Lifetechnologies), […] β-mercaptoethanol (Sigma), and fungizone (GIBCO). All cell lines were cultured at 37 °C in a humidified atmosphere with 6.5% CO2.

[2] = test system: Karpas 299 human cell line; experiment: Mixed lymphocyte reaction with Karpas 299 Treg cell line, IFN-γ by ELISA; type: cell-based; settings: MLR of PBMCs from two donors + Karpas 299, peptide 50 μM, 48 h
Protocol: as §1

[3] = test system: murine CD4+CD25+ Treg cells; experiment: In vitro Treg inhibition: anti-CD3 stimulated effector T cells co-cultured with Treg cells, tritiated thymidine incorporation; type: cell-based, mouse; settings: peptide 10 μM (not shown)
FOXP3 = experiment: Surface plasmon resonance binding of peptides to a chip coated with FOXP3; settings: peptide 10 μM; Figure 4A
Protocol: (§2) The screening of peptide binders to FOXP3 was performed by surface plasmon resonance (SPR) using a ProteOn XPR36 (Bio-Rad, Hercules CA, USA) optical biosensor. Recombinant protein FOXP3-6His produced and purified from E-coli was immobilized covalently onto a GLC sensor chip (Bio-Rad) using the coupling reagents sulfo-NHS (N-Hydroxysulfosuccinimide) and EDC (1-Ethyl-3-(3-dimethylaminopropyl) carbodiimide, (Bio-Rad) as previously described. Peptide solutions (10 μM) were injected by triplicate in running buffer (phosphate-buffered saline, 0.005% (v/v) Tween 20, pH 7.4) at a flow of 30 μL/min. The interspot signal (obtained in the chip surface not immobilized with protein) was used as reference. FOXP3/NFAT1 and FOXP3/AML1 interactions were analyzed by Alphascreen technology as previously described according to the manufacturer’s protocol (Perkin Elmer, Benelux). Reactions were performed in a 40 μL final volume in 96-well Optiwell microtiter plates (Perkin Elmer). The reaction buffer contained 20 mM HEPES (4-(2-hydroxyethyl)-1-piperazineethanesulfonic acid), pH 7.9, 200 mM KCl, 1 mM MgCl2 and 0.05% bovine serum albumin (BSA). Recombinant NFAT1 expressed with a hexa-Histidine tag was captured by nickel chelate acceptor beads, whereas recombinant FOXP3 expressed with a GST (glutathione S-transferase) tag was captured by glutathione donor beads (Perkin Elmer). For FOXP3 dimerization assays, GST-tagged FOXP3 and His-tagged FOXP3 were co-cultured in the presence or absence of the indicated peptides for 1 h. Then, donor and acceptor beads were added as described above and incubated for 2 h. FOXP3/AML1 interaction was measured following a similar protocol using FOXP3-GST and AML1-His proteins. Exposure of the reaction to direct light was avoided as much as possible, and the emission of light from the acceptor beads was measured in the EnVision plate reader after the indicated incubation period (Perkin Elmer, Benelux).

FOXP3/NFAT1 = experiment: FOXP3/NFAT interaction by Alphascreen; type: binding; settings: alpha screen; Figure 6C
Protocol: as §2, with “The reaction buffer contained 20 mM HEPES (4-(2-hydroxyethyl)-1-piperazineethanesulfonic acid), pH 7.9, 200 mM KCl, 1 mM MgCl2 and 0.05% bovine serum albumin (BSA). Recombinant NFAT1 expressed with a hexa-Histidine tag was captured by nickel chelate acceptor beads, whereas recombinant FOXP3 expressed with a GST (glutathione S-transferase) tag was captured by glutathione donor beads (Perkin Elmer). For FOXP3 dimerization assays, GST-tagged FOXP3 and His-tagged FOXP3 were co-cultured in the presence or absence of the indicated peptides for 1 h. Then, donor and acceptor beads were added as described above and incubated for 2 h.” left out

FOXP3-6His = target: T1, FOXP3-6His (UniProt Q9BZS1-1 1-417); experiment: SPR; FOXP3-6His immobilised covalently on a GLC sensor chip (ProteOn XPR36); peptides 10 uM injected in triplicate; PBS, 0.005% Tween 20, pH 7.4; 30 uL/min; interspot signal as reference; settings: both partners purified
T1 construct: FOXP3 (Forkhead box protein 3) transcription factor; also called His-tagged FOXP3
T1 sequence (looked up): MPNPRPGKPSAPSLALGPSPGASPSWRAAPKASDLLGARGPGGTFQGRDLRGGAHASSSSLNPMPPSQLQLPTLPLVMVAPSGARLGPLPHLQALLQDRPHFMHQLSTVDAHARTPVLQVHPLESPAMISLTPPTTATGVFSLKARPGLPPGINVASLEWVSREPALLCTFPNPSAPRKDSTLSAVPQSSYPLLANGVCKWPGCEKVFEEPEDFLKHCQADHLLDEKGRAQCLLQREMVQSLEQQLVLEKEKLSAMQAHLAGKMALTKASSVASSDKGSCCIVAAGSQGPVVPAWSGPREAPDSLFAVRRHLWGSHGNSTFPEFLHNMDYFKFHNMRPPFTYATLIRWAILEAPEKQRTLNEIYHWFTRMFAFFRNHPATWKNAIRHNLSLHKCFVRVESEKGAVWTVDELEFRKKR

CGISYGRKKRRQRRR-KCFVRVESEKG [TAT-393–403, peptide F393–403 fused to the cell-penetrating peptide TAT (Tat 44–57)]
Treg inhibitory capacity in vitro (proliferation of effector T cells with anti-CD3 in presence of Treg) [1]: significantly improved the Treg inhibitory capacity

GGFSLHPWWRFNHDR [p65]
effect on tumor-suppressor activity of FOXP3 (proliferation of 4T1-FOXP3 versus 4T1-Ctrl cells) (4T1-FOXP3 cells): able to inhibit the tumor-suppressor activity
Treg inhibitory capacity (Karpas MLR assays) [2]: potential Treg inhibitory capacity

IRGLRFGPGFMWPTL [p50]
effect on tumor-suppressor activity of FOXP3 (proliferation of 4T1-FOXP3 versus 4T1-Ctrl cells) (4T1-FOXP3 cells): able to inhibit the tumor-suppressor activity
Treg inhibitory capacity (Karpas MLR assays) [2]: potential Treg inhibitory capacity

IYHWFTRMFAFFRNH [F363–377, 15-mer overlapping peptide from the FKH domain of FOXP3]
Treg inhibitory capacity in vitro [3]: did not exhibit Treg inhibitory capacity
toxicity in Teff&Treg co-cultures [3]: no toxicity was observed
toxicity in Teff&Treg co-cultures [1]: some toxicity
binding capacity to FOXP3 by SPR (FKH domain peptides) (FOXP3): good binders to FOXP3

KCFVRVESEKGAVWT [F393–407, 15-mer overlapping peptide from the FKH domain of FOXP3]
level of T-cell proliferation in presence of peptide versus anti-CD3 stimulated T-cells without Treg [1]: surpassed the maximum proliferation of T-cells stimulated with anti-CD3 in the absence of Treg cells
Treg inhibitory capacity in vitro (proliferation of effector T cells with anti-CD3 in presence of Treg) [1]: strong Treg inhibitory capacity

NAIRHNLSLHKCFVR [F383–397, 15-mer overlapping peptide from the FKH domain of FOXP3]
binding capacity to FOXP3 by SPR (FKH domain peptides) (FOXP3): good binders to FOXP3

NLSLHKCFVRVESEK [F388–402, 15-mer overlapping peptide from the FKH domain of FOXP3]
Treg inhibitory capacity in vitro (proliferation of effector T cells with anti-CD3 in presence of Treg) [1]: strong Treg inhibitory capacity

PATWKNAIRHNLSLH [F378–392, 15-mer overlapping peptide from the FKH domain of FOXP3]
binding capacity to FOXP3 by SPR (FKH domain peptides) (FOXP3): good binders to FOXP3

RRIVSQLLHPLWSMP [p61]
Treg inhibitory capacity (Karpas MLR assays) [2]: potential Treg inhibitory capacity

RRQIHLVLPWRAVQS [p52]
effect on tumor-suppressor activity of FOXP3 (proliferation of 4T1-FOXP3 versus 4T1-Ctrl cells) (4T1-FOXP3 cells): able to inhibit the tumor-suppressor activity
Treg inhibitory capacity (Karpas MLR assays) [2]: potential Treg inhibitory capacity

RSRFFAPFAFLSSGL [p53]
Treg inhibitory capacity (Karpas MLR assays) [2]: potential Treg inhibitory capacity

RTLNEIYHWFTRMFA [F358–372, 15-mer overlapping peptide from the FKH domain of FOXP3]
Treg inhibitory capacity in vitro (proliferation of effector T cells with anti-CD3 in presence of Treg) [1]: strong Treg inhibitory capacity

RVESEKGAVW [397–406 L, linear version of peptide F397–406 from the FKH domain]
disruption of FOXP3-NFAT heterodimerization (FOXP3/NFAT1): retained the activity to impair Foxp3/NFAT interaction

TRMFAFFRNHPATWK [F368–382, 15-mer overlapping peptide from the FKH domain of FOXP3]
Treg inhibitory capacity in vitro [3]: did not exhibit Treg inhibitory capacity
toxicity in Teff&Treg co-cultures [3]: no toxicity was observed
toxicity in Teff&Treg co-cultures [1]: some toxicity
binding capacity to FOXP3 by SPR (FKH domain peptides) (FOXP3): good binders to FOXP3

WAILEAPEKQRTLNE [F348–362, 15-mer overlapping peptide from the FKH domain of FOXP3]
Treg inhibitory capacity in vitro (proliferation of effector T cells with anti-CD3 in presence of Treg) [1]: strong Treg inhibitory capacity

IRGLRFGPGFMWPTL (source: synthetic peptide) [p50]
SPR response (FOXP3-6His): > 500 RU

RRQIHLVLPWRAVQS (source: synthetic peptide) [p52]
SPR response (FOXP3-6His): > 500 RU

GLRERMRLPFFVFGG (source: synthetic peptide) [p49]
SPR response (FOXP3-6His): > 500 RU

RFWDYDLMLRVLRPL (source: synthetic peptide) [p59]
SPR response (FOXP3-6His): > 500 RU

RDFQSFRKMWPFFAM (source: synthetic peptide) [p60]
SPR response (FOXP3-6His): > 500 RU

SSKSLAAPLGLFVVG (source: synthetic peptide) [p55]
SPR response (FOXP3-6His): > 500 RU

GGFSLHPWWRFNHDR (source: synthetic peptide) [p65]
SPR response (FOXP3-6His): > 500 RU

GMRFFPWLGVGFAMR (source: synthetic peptide) [p47]
SPR response (FOXP3-6His): > 500 RU
